In patent US20070232638A1, “Opiopathies” (priority 2006, published 2007):

Tests used:
[1] = test system: central pain in MS patients; conditions: intravenous 1.0 mg/ml morphine in physiological saline, response only after high doses; cited from earlier work
[2] = test system: paresis/paralysis of the tongue, larynx, pharynx, esophagus, urinary bladder sphincter, muscles of the lumbar and lumbo-sacral spine and of the pelvis and …; experiment: Opiate treatment of dogs with neuropathic paresis/paralysis (UROS/OPS case studies); conditions: dog, in vivo
Excerpt: In order to clinically diagnose and/or evaluate the effectiveness of a dose of an anti-opiopathic active agent or formulation, over time, when being used to treat an opiopathic ailment, the following grading protocol can be employed to quantify and document function of the target muscle(s) and/or organ(s).
In grading the evaluations, an organ is considered to be neurologically normal when there is no neuropathology affecting its function. Because in most cases an organ can be clearly identified as having normal neurologic function, decreased neurologic function (paresis), or no neurologic function (paralysis), the documenting of the degree of remaining neurologic function of an organ lends itself to a simple grading system. An organ that functions normally and has no observable signs or symptoms is considered to be neurologically normal and receives the lowest score (0). An organ that has no function as a result of a neurologic/neurogenic ailment and is paralyzed, receives the highest score (10). An organ that has a partial loss of function (paresis) receives a score between (1) and (9), depending on the degree of function remaining. A decrease of the score of a function after administration of an anti-opiopathic active agent or formulation, indicates effectiveness roughly proportional to the relative decrease. […]

paresis/paralysis = conditions: immediate or sustained release formulations; earlier application; cited from earlier work
[3] = test system: MS, Lou Gherig's Disease and Parkinson's Disease; conditions: in vivo; cited from earlier work

Structure (SMILES): CN1CC[C@]23c4c5ccc(O)c4O[C@H]2[C@@H](O)C=C[C@H]3[C@H]1C5 [morphine]
- responsiveness of neuropathic (central) pain [1]: poorly responsive, but not totally unresponsive

Structure (SMILES): COc1ccc2c3c1O[C@H]1C(=O)CC[C@@]4(O)[C@@H](C2)N(C)CC[C@]314 [oxycodone]
- reversing paresis/paralysis in the larynx [2]: effective
- treating urinary bladder sphincter paresis/paralysis [2]: effective
- reversal of paresis/paralysis (paresis/paralysis): successful reversal

Structure (SMILES): COc1ccc2c3c1O[C@H]1C(=O)CC[C@H]4[C@@H](C2)N(C)CC[C@]314 [hydrocodone]
- reversal of paresis/paralysis (paresis/paralysis): successful reversal

Structure (SMILES): O=C1CC[C@@]2(O)[C@H]3Cc4ccc(O)c5c4[C@@]2(CCN3CC2CC2)[C@H]1O5 [naltrexone]
- treatment outcome [3]: limited success

Structure (SMILES): CN1CC[C@]23c4c5ccc(O)c4O[C@H]2[C@@H](O)C=C[C@H]3[C@H]1C5.O=S(=O)(O)O [morphine sulfate]
- reversal of paresis/paralysis (paresis/paralysis): successful reversal
